Measurements published in patent US20070276126A1, “Cell adhesion and extracellular matrix proteins” (Incyte Corporation, priority 2002, published 2007).

Tests used:
[1] = tested on: expression of SEQ ID NO:78 in PHA blasts (T cell blasts derived from PBMCs); assay: Microarray analysis of SEQ ID NO:78 expression in reactivated PHA blasts versus untreated PHA blasts; type: cell-based, human; settings: PHA blasts stimulated for 2 hours, versus matching untreated PHA blasts, one donor tested
Procedure: (§1) Total RNA is isolated from tissue samples using the guanidinium thiocyanate method and poly(A)^+ RNA is purified using the oligo-(dT) cellulose method. Each poly(A)^+ RNA sample is reverse transcribed using MMLV reverse-transcriptase, 0.05 pg/μl oligo-(dT) primer (21 mer), 1× first strand buffer, 0.03 units/μl RNase inhibitor, 500 μM dATP, 500 μM dGTP, 500 μM dTTP, 40 μM dCTP, 40 μM dCTP-Cy3 (BDS) or dCTP-Cy5 (Amersham Biosciences). The reverse transcription reaction is performed in a […] containing 200 ng poly(A)^+ RNA with GEMBRIGHT kits (Incyte). Specific control poly(A)^+ RNAs are synthesized by in vitro transcription from non-coding yeast genomic DNA. […]
(§2) Reporter-labeled hybridization complexes are detected with a microscope equipped with an Innova 70 mixed gas 10 W laser (Coherent, Inc., Santa Clara Calif.) capable of generating spectral lines at 488 nm for excitation of Cy3 and at 632 nm for excitation of Cy5. […]
(§3) A grid is superimposed over the fluorescence signal image such that the signal from each spot is centered in each element of the grid. The fluorescence signal within each element is then integrated to obtain a numerical value corresponding to the average intensity of the signal. […]

[2] = tested on: expression of SEQ ID NO:78 in normal and Tangier disease derived fibroblasts; assay: Microarray analysis of SEQ ID NO:78 expression in fibroblasts cultured in the presence versus absence of cholesterol; type: cell-based, human; settings: fibroblasts cultured in the presence of cholesterol versus same cell type in the absence of cholesterol (one of 'both types of comparisons')
Procedure: as §1, §2, §3

SMILES | downregulation of SEQ ID NO:78 [1] | downregulation of SEQ ID NO:78 [2]
CCCCCCCCCCCCCC(=O)O[C@@H]1[C@@H](C)[C@@]2(O)[C@@H](C=C(CO)C[C@]3(O)C(=O)C(C)=C[C@@H]23)[C@@H]2C(C)(C)[C@]12OC(C)=O [PMA, phorbol myristate acetate] | at least two | –
CC(C)CCC[C@@H](C)[C@H]1CC[C@H]2[C@@H]3CC=C4C[C@@H](O)CC[C@]4(C)[C@H]3CC[C@]12C [cholesterol] | – | at least two
